# Biological target: T1, CCR2 (Homo sapiens, UniProt P41597)
# T1 construct: Membranes were prepared from THP-1 cells; endogenous in cells; host or cells: THP-1 (human acute monocytic leukaemia cells), membrane preparation
# Assay: CCR2 receptor membrane binding assay ([125I]MCP-1, THP-1 membranes, SPA beads)
# Settings: THP-1 cell membranes, [125I]MCP-1 displacement, bound radioactivity after 8 h; read-out: hKi
# Description: The above exemplary substances have been tested for binding to CCR2 using a binding assay as outlined herein below:
# THP-1 cells (human acute monocytic leukaemia cells) were cultured under standardized conditions at 37° C. and 5% CO2 in a humidified incubator. THP-1 cells were cultivated in RPMI 1640 medium (Gibco 21875) containing 1% MEM-NEAA (Gibco 11140) 2 mM L-glutamine, 1.5 g/L sodium bicarbonate, 4.5 g/L glucose, 10 mM HEPES and 1.0 mM sodium pyruvate, 90%; 10% fetal calf serum (FCS Gibco 10500-064). Membranes were prepared from THP-1 cells. THP-1 cells were centrifuged at 300×g at 4° C. for 10 min. The cell pellet was resuspendet in Phosphate Buffer Saline (PBS, including 10 μM Pefabloc and a protease inhibitor mix ‘complete’, Boehringer Mannheim (1 tablet/50 ml)), to a concentration of […]. The membrane preparation was performed by disrupting the cells by nitrogen […] (at 50 bar, for 1 h) in a “Nitrogen Bombe” (Parr Instrument). Cell debris was removed by centrifugation (800×g at 4° C., 1 min). The supernatant was centrifuged at 80000×g, 4° C. for 30 min to sediment the cell membranes. Usually 50 mg of protein (Bradford assay) were yielded from 1×10E9 cells. The membranes were resuspendet in 25 mM HEPES, 25 mM MgCl2, 1 mM CaCl2, 10% Glycerine for storage in aliquots at −80° C. in 25 mM HEPES, 25 mM MgCl2, 1 mM CaCl2, 10% Glycerine and stored at −80° C.
# Perkin Elmer NEX 332 Jod 125 MCP-1, Stock: 2200 Ci/mmol solved in 2000 μl assay buffer, stored at −20° C. THP-1 membrane were adjusted with 25 mM HEPES, pH 7.2; 5 mM MgCl2; 0.5 mM CaCl2; 0.2% BSA assay buffer to a concentration of 2.5 μg/15 Amersham Biosciences PVT-WGA Beads (RPNQ0001) were adjusted with assay buffer to a concentration of 0.24 mg/30 μl. For preparation of the membrane-bead-suspension membranes and beads were incubated for 30 min at RT under rotation (60 rpm) with a ratio of 1:2. Test compounds dissolved in 100% DMSO to a concentration of 10 mM and are further diluted with 100% DMSO to 1 mM. All additional compound dilutions were obtained with assay buffer, final 1% DMSO. Compounds, membrane-bead-suspension and [125I]MCP-1 (ca. 25000 cpm/10 μl) were incubated. Bound radioactivity was determined by scintillation counter after 8 h. Determination of affinity of test compounds (dissociation constant hKi) is calculated by iterative fitting of experimental data using the “easy sys” program, which is based on law of mass action (Schittkowski K. (1994), Numerische Mathematik, Vol. 68, 129-142).
# T1 sequence (P41597 whole entry): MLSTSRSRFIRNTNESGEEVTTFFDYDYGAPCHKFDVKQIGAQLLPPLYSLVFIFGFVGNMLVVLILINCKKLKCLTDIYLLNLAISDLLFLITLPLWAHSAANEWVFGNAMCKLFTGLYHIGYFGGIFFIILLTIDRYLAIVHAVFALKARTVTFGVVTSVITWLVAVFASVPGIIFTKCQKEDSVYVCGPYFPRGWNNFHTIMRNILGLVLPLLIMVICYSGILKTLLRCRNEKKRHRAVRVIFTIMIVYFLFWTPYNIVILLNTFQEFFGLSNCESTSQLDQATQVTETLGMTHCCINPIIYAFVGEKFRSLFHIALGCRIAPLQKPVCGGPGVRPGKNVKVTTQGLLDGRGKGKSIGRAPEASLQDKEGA
row,SMILES,Ki
1,Cc1c(NCc2ccc(C(C)(C)C)cc2)cncc1C(=O)N1CCC(N2CCC(N(C)S(C)(=O)=O)CC2)CC1 [Example 1],594 nM
2,Cc1c(NC[C@H]2CCC[C@@H](c3ccccc3)C2)cncc1C(=O)N1CCC(N2CCC(N(C)S(C)(=O)=O)CC2)CC1 [Example 2],42 nM
3,CO[C@@H]1COCC[C@@H]1NC1CCN(C(=O)c2cncc(NCc3ccc(C(F)(F)F)c(Cl)c3)c2C)CC1 [Example 6d],72 nM
4,CO[C@@H]1COCC[C@@H]1NC1CCN(C(=O)c2cncc(NCc3ccc(Cl)c(F)c3)c2C)CC1 [Example 6c],133 nM
5,CO[C@@H]1COCC[C@@H]1NC1CCN(C(=O)c2cncc(NC[C@H]3CCC[C@@H](c4ccc(C)cc4)O3)c2)CC1 [Example 10],107 nM
6,O=C(c1cncc(NC[C@H]2CCC[C@@H](c3ccc(C(F)(F)F)cc3)O2)c1)N1CCC(NC2CCOCC2F)CC1 (some centres unmarked) [Example 8],100 nM
7,CO[C@H]1COCC[C@H]1NC1CCN(C(=O)c2cncc(Nc3ccc(Cl)c(Cl)c3)c2C)CC1 [Example 6b],85 nM

# Stronger by Ki, values ahead:
row,Ki,SMILES
1,21 nM,CO[C@H]1COCC[C@H]1NC1CCN(C(=O)c2cncc(NC[C@H]3CCC[C@@H](c4ccc(C)cc4)O3)c2C)CC1 [Example 6]
2,6 nM,CO[C@@H]1COCC[C@@H]1NC1CCN(C(=O)c2cncc(NC[C@H]3CCC[C@@H](c4ccc(C)cc4)O3)c2C)CC1 [Example 3]
3,18 nM,CO[C@@H]1COCC[C@@H]1NC1CCN(C(=O)c2cncc(Nc3ccc(Cl)c(Cl)c3)c2C)CC1 [Example 6a]
4,2 nM,CO[C@H]1COCC[C@H]1NC1CCN(C(=O)c2cncc(NC[C@H]3CCC[C@@H](c4ccc(OC(F)(F)F)cc4)O3)c2C)CC1 [Example 4]
5,40 nM,CO[C@H]1COCC[C@H]1NC1CCN(C(=O)c2cncc(NC[C@H]3CCC[C@@H](c4ccc(C(F)(F)F)cc4)O3)c2)CC1 [Example 7]
6,1 nM,CO[C@@H]1COCC[C@@H]1NC1CCN(C(=O)c2cncc(NC[C@H]3CCC[C@@H](c4ccc(OC(F)(F)F)cc4)O3)c2C)CC1 [Example 5]
7,27 nM,CO[C@@H]1COCC[C@@H]1NC1CCN(C(=O)c2cncc(NC[C@H]3CCC[C@@H](c4ccc(C(F)(F)F)cc4)O3)c2)CC1 [Example 9]
